Experimental data from patent publication US20080039444A1, “COMPOUNDS” (GLAXO GROUP LIMITED, priority 2006, published 2008).

Legend:
[1] = target: T1, human H1 receptor (Homo sapiens, UniProt P35367); experiment: Histamine H1 functional antagonist assay: antagonist duration after washout; assay type: cell-based; conditions: at one or more time points
T1 construct: expressed in transfected cells
Procedure: The human H1 receptor is cloned using known procedures described in the literature [Biochem. Biophys. Res. Commun., 201(2):894 (1994)]. Chinese hamster ovary (CHO) cells stably expressing the human H1 receptor are generated according to known procedures described in the literature [Br. J. Pharmacol., 117(6):1071 (1996)].
Histamine H1 functional antagonist assay: Determination of antagonist pA2 and duration
To determine the antagonist duration, cells are cultured overnight in non-coated black-walled clear bottom 96-well tissue culture plates, are washed with PBS and are incubated with a concentration of antagonist chosen to give an approximate DR in the range 30-300. Following the 30 min antagonist incubation period, the cells are washed two or three times with 200 μl of PBS and then 100 μl Tyrodes buffer is added to each well to initiate antagonist dissociation. Following incubation for predetermined times, typically 30-270 min at 37° C., the cells are then washed again with 200 μl PBS and are incubated with 100 μl Tyrodes buffer containing Brilliant Black, probenecid and Fluo-4 for 45 min at 37° C., as described above. After this period, the cells are challenged with histamine in the FLIPR™ as described above. The dose ratio at each time point is used to determine the fractional H1 receptor occupancy by the following equation: fractional receptor occupancy=(DR-1)/DR. The decrease in receptor occupancy over time approximates to a straight line and is analysed by linear regression. The slope of this straight line fit is used as an index of the dissociation rate of the antagonist. The dose ratios for antagonist treated cells and for antagonist treated and washed cells at each time point are used to calculate a relative dose ratio (rel DR) which is also used as an index of antagonist duration. Antagonists with long duration of action produce rel DR values close to 1, and antagonists with short duration of action produce rel DR values that approaches the dose ratio value obtained for antagonist treatment alone.

[2] = tested on: histamine-induced nasal congestion; experiment: Intranasal challenge method: whole body plethysmography, histamine-induced nasal congestion; assay type: in vivo, guinea pig; conditions: 24 hours after dosing, compared to azelastine; intranasal 1 mg/ml (FIG. 3, Example 24D)
Procedure: FIG. 3: depicts the duration of 4-[(4-chlorophenyl)methyl]-2-({(2R)-1-[4-(4-{[3-(hexahydro-1H-azepin-1-yl)propyl]oxy}phenyl)butyl]-2-pyrrolidinyl}methyl)-1(2H)-phthalazinone, dihydrochloride salt (Example 24D) and azelastine in a conscious Guinea-Pig model of histamine-induced nasal congestion. Animals were exposed to histamine at the time indicated after an intranasal dose of 1 mg/ml of compound. Mean ±s.e. mean (n=6-10 per group).
Intranasal Challenge Method: Whole Body Plethysmography
Female Dunkin-Hartley guinea pigs 150-250 g are sensitised twice daily for 5 days (week 1) with ovalbumin (OVA) and aluminium hydroxide (AI(OH)3 or Alum) in physiological saline, 25 μl/nostril. Solution is made up at 20 μg/ml OVA, 180 mg/ml Alum. During weeks 2 and 3, animals receive 25 μl/nostril of OVA (5 mg/ml) once daily. […]
Pretreatment with test compound is performed at various times prior to histamine challenge. Efficacy dose-response curves are determined 1 h after dosing whereas duration of action is studied up to 7 days post dose. […]
After the stipulated pre-dose time has been reached, guinea pigs are re-anaesthetised with isoflurane and dosed with either 15 mM histamine or phosphate-buffered saline (PBS), (25 μl per nostril). […] Data are analysed using ANOVA with post-hoc Fishers LSD test (general linear models, Statistica®) and finally Hochberg adjustment. […]

[3] = CNS penetration (intravenous bolus or infusion at steady state, blood and brain levels); assay type: in vivo, rat; conditions: male CD Sprague Dawley rats
Procedure: (i) CNS penetration by bolus administration
Compounds are dosed intravenously at a nominal dose level of 1 mg/kg to male CD Sprague Dawley rats. Compounds are formulated in 5% DMSO/45% PEG200/50% water. Blood samples are taken under terminal anaesthesia with isoflurane at 5 min post-dose and the brains are also removed for assessment of brain penetration. Blood samples are taken directly into heparinised tubes. Blood samples are prepared for analysis using protein precipitation and brain samples are prepared using extraction of drug from brain by homogenisation and subsequent protein precipitation. The concentration of parent drug in blood and brain extracts is determined by quantitative LC-MS/MS analysis using compound-specific mass transitions.
(ii) CNS penetration following intravenous infusion at steady state
A loading dose of the compounds is given to male CD Sprague Dawley rats at a nominal dose level of 0.4 mg/kg. The compounds are then infused intravenously for 4 h at a nominal dose level of 0.1 mg/kg/h. Compounds are formulated in 2% DMSO/30% PEG200/68% water. Serial or terminal blood samples are taken at 0.5, 1.5, 2.5, 3, 3.5 and 4 h post dose. The final blood sample is collected under terminal anaesthesia with isoflurane and the brains are also removed for assessment of brain penetration. Blood samples are taken directly into heparinised tubes. Blood samples are prepared for analysis using protein precipitation and brain samples are prepared using extraction of drug from brain by homogenisation and subsequent protein precipitation. The concentration of parent drug in blood and brain extracts is determined by quantitative LC-MS/MS analysis using compound-specific mass transitions.

T1 sequence (P35367 whole entry): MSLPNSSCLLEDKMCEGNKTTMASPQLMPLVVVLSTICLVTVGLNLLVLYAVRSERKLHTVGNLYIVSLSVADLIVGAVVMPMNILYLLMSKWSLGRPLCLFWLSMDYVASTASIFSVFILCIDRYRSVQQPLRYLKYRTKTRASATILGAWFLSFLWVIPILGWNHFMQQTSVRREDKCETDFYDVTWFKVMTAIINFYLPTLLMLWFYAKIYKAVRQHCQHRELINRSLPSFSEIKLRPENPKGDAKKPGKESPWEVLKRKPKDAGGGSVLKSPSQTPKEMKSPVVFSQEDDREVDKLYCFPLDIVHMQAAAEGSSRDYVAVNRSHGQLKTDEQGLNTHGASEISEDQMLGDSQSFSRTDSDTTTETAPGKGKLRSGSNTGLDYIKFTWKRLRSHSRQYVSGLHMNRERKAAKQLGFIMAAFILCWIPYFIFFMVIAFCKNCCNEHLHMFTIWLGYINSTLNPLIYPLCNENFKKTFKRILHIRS

SMILES: O=c1c2ccccc2c(Cc2ccc(Cl)cc2)nn1C[C@H]1CCCN1CCCCc1ccc(OCCCN2CCCCCC2)cc1 [Example 24, 4-[(4-Chlorophenyl)methyl]-2-({(2R)-1-[4-(4-{[3-(hexahydro-1H-azepin-1-yl)propyl]oxy}phenyl)butyl]-2-pyrrolidinyl}methyl)-1(2H)-phthalazinone free base]
- duration of action compared with azelastine in the histamine H1 functional antagonist assay [1]: significantly longer duration of action than azelastine
- inhibition of nasal congestion in the Guinea Pig whole body plethysmography model [2]: statistically significant inhibition of nasal congestion
- CNS penetration compared with azelastine [3]: lower CNS penetration than azelastine
